# Laboratory results reported in patent US20190337924A1, “SUBSTITUTED HYDANTOIN AND THIOHYDANTOIN DERIVATIVES AS ANDROGEN RECEPTOR ANTAGONISTS” (Janssen Pharmaceutica NV, priority 2016, published 2019).
# Counter-ions that a name gives are not always drawn. Like-named read-outs stand apart in the source and are kept apart here.
# Columns and labels:
# [1] = target: T1, wild-type Androgen Receptor (AR-wt) (Homo sapiens, UniProt P10275); assay: AR reporter assay, LNCaP-AR-wt AG (agonist mode); format: cell-based; details: for Emax: read-out: LNCaP-AR-wt AG MAX % Stim
# T1 construct: expressed in transfected cells; host or cells: LNCaP
# T1 sequence (P10275 1-920): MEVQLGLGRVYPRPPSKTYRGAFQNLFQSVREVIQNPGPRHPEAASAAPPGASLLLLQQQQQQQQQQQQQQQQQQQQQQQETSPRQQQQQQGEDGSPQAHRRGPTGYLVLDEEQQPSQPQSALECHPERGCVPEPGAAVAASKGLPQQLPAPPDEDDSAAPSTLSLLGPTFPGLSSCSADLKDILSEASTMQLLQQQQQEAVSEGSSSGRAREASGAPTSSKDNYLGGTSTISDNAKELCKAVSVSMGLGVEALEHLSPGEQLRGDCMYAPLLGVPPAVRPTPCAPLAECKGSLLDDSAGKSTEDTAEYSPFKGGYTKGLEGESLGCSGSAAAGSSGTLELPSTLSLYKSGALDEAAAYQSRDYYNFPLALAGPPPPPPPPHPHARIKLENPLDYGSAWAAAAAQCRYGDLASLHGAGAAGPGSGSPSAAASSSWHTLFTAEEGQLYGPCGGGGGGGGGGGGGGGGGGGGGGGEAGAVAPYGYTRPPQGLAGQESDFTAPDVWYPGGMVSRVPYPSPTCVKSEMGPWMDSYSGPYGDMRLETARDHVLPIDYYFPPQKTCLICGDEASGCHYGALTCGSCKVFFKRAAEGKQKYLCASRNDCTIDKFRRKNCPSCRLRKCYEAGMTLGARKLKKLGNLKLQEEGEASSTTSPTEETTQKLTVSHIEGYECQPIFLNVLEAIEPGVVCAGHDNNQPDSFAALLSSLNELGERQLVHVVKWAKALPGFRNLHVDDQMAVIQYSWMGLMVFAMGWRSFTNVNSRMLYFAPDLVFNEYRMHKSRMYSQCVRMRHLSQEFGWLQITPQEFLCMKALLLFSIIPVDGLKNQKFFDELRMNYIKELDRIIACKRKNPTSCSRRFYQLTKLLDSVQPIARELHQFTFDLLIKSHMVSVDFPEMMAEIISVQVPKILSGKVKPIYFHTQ
# Text: LNCaP AR (cs) and LNCaP F876L luciferase cell lines were generated by transduction of each cell line (description of cell line generation Joseph J D, Lu N, Qian J, Sensintaffar J, Shao G, Brigham D, Moon M, Maneval E C, Chen I, Darimont B, Hager J H. A clinically relevant androgen receptor mutation confers resistance to second-generation antiandrogens enzalutamide and ARN-509. Cancer Discov 2013; 3:1020-1029) with an Androgen Response Element Firefly Luciferase lentiviral construct at an MOI (multiplicity of infection) of 50 following the manufacturer's instructions (Qiagen). A stable pooled-population cell line was generated using puromycin (Life Technologies) selection at 1:10,000 v/v. The protocol below was used for both cell lines and for testing of the compounds of Formula (I) of the present invention.
# LNCaP cells were grown to about 80% confluence, media removed and cells rinsed in Hank's balanced salt solution prior to separation from the plate with 0.05% Trypsin EDTA. Cells were lifted and trypsin negated in complete CSS (charcoal stripped serum) culture media. CSS was maintained on cells for 24 h prior to assay, at which time 5,000 cells/[…] were seeded in Greiner 384 well White/White Tissue Culture Treated Plates and incubated for a further 1-2 hours at 37° C., 5% CO2, prior to addition of 10 μL of 4× Test Compounds (compounds described herein) or Assay Controls (all diluted in complete media containing 10% css). A further 10 μL of 4× R-1881 Agonist Challenge (antagonist assay) or Buffer (agonist assay) was then added (all diluted in complete media containing 10% css). Agonist challenge was at 400 pM for WT assay and 600 pM for F876L assay. Plates containing cells and compounds herein were incubated for a further 20-24 hours at 37° C., 5% CO2 before addition of 40 μL/well of Steady-Glo Luciferase Assay System Reagent (Promega#E2520). After 1 h, plates were read for luminescence on a BMG Pherastar.
# ((Sample RLU−Ave Low Control RLU[DMSO/Buffer])/(Ave High Control RLU [1 μM R-1881]—Ave Low Control RLU[DMSO/Buffer]))*100.
# EC/IC50 calculations were achieved utilizing calculated RLU data and data fitting macros. Data were fit using least-squares methods to the following formula: […]
# As used herein: • pIC50 is defined as −Log10(IC50 expressed in [Molar]). • pEC50 is defined as −Log10(EC50 expressed in [Molar]). • MAX % Inh is defined as the maximum % inhibition of R1881 control response observed for a compound over the tested concentration range. • MAX % Stim is defined as the maximum % stimulation (agonist response) observed for a compound over the tested concentration range. • LNCaP-AR-wt ANT refers to the reporter assay using LNCaP cells stably transfected with the Androgen Response Element Firefly Luciferase lentiviral construct and wild-type Androgen Receptor (AR-wt) in Antagonist mode. • LNCaP-AR-wt AG refers to the reporter assay using LNCaP cells stably transfected with the Androgen Response Element Firefly Luciferase lentiviral construct and wild-type Androgen Receptor (AR-wt) in Agonist mode. • LNCaP-AR-F876L ANT refers to the reporter assay using LNCaP cells stably transfected with the Androgen Response Element Firefly Luciferase lentiviral construct and F876L mutant Androgen Receptor (AR-F876L) in Antagonist mode. • LNCaP-AR-F876L AG refers to the reporter assay using LNCaP cells stably transfected with the Androgen Response Element Firefly Luciferase lentiviral construct and F876L mutant Androgen Receptor (AR-F876L) in Agonist mode.
# [2] = system: LNCaP WT; assay: LNCaP Proliferation Assay, LNCaP WT; format: cell-based; details: Homo sapiens, 96 h, 1% CSS, 4 days, CellTiter-Glo, normalized to 0.1 nM R1881 stimulation
# Protocol: LNCaP cells were expanded in RPMI 10% FBS in T150 flasks. The cells were dislodged with 0.25% Trypsin, washed in complete media, centrifuged (300 g, 3 min), and the supernatant aspirated. The cells were resuspended in RPMI phenol-red free media with 1% charcoal-stripped serum (CSS) and counted using a ViCELL (Beckman-Coulter). 7500 cells were added to each well of a white optical bottom 384-well plate and incubated for 2 days at 37° C. 5% CO2. Compound dilutions were prepared in RPMI CSS using 50 mM stock solutions and added to the cells either alone (agonist mode) or in combination with 0.1 nM R1881 (antagonist mode). The plates were incubated for 4 days, followed by addition of CellTiter-Glo Luminescent Cell Viability kit reagent (Promega). The plates were placed on a shaker at 3000 rpm for 10 minutes and then read on an EnVision plate reader (Perkin Elmer) using Luminescence assay default settings. The data was analyzed, normalized to 0.1 nM R1881 stimulation, and plotted in GraphPad Prism.
SMILES,EC50 [1] [µM],Emax [1] [%],IC50 [2] [µM],"EC50 ([1]; agonist mode (buffer, no R-1881), -Log10(EC50 in Molar), read-out: LNCaP-AR-wt AG pEC50 (converted)) [µM]"
"CC1(C)C(=O)N(c2ccc(C#N)c(C(F)(F)F)c2)C(=S)N1c1ccc(OC2CCNCC2)cc1 [Compound 1, 4-(4,4-Dimethyl-5-oxo-3-(4-(piperidin-4-yloxy)phenyl)-2-thioxoimidazolidin-1-yl)-2-(trifluoromethyl)benzonitrile]",> 15.1,0.6,,
"CN1CCC(Oc2ccc(N3C(=S)N(c4ccc(C#N)c(C(F)(F)F)c4)C(=O)C3(C)C)cc2)CC1 [Compound 2, 4-(4,4-Dimethyl-3-(4-((1-methylpiperidin-4-yl)oxy)phenyl)-5-oxo-2-thioxoimidazolidin-1-yl)-2-(trifluoromethyl)benzonitrile hydrochloride]",> 15.1,-0.2,1.37,
"CC1(C)C(=O)N(c2ccc(C#N)c(C(F)(F)F)c2)C(=S)N1c1ccc(OC2CCNCC2)nc1 [Compound 3, 4-(4,4-Dimethyl-5-oxo-3-(6-(piperidin-4-yloxy)pyridin-3-yl)-2-thioxoimidazolidin-1-yl)-2-(trifluoromethyl)benzonitrile hydrochloride]",> 15.1,0.5,,
"CN1CCC(Oc2ccc(N3C(=S)N(c4ccc(C#N)c(C(F)(F)F)c4)C(=O)C3(C)C)cn2)CC1 [Compound 4, 4-(4,4-Dimethyl-3-(6-((1-methylpiperidin-4-yl)oxy)pyridin-3-yl)-5-oxo-2-thioxoimidazolidin-1-yl)-2-(trifluoromethyl)benzonitrile hydrochloride]",> 15.1,0.1,0.46,
"CC1(C)C(=O)N(c2ccc(C#N)c(C(F)(F)F)c2)C(=S)N1c1cnc(OC2CCNCC2)nc1 [Compound 5, 4-(4,4-Dimethyl-5-oxo-3-(2-(piperidin-4-yloxy)pyrimidin-5-yl)-2-thioxoimidazolidin-1-yl)-2-(trifluoromethyl)benzonitrile]",> 15.1,0.1,1.04,
"CN1CCC(Oc2ncc(N3C(=S)N(c4ccc(C#N)c(C(F)(F)F)c4)C(=O)C3(C)C)cn2)CC1 [Compound 6, 4-(4,4-Dimethyl-3-(2-((1-methylpiperidin-4-yl)oxy)pyrimidin-5-yl)-5-oxo-2-thioxoimidazolidin-1-yl)-2-(trifluoromethyl)benzonitrile]",> 15.1,0.8,,
"CC1(C)C(=O)N(c2ccc(C#N)c(Cl)c2)C(=S)N1c1ccc(OC2CCNCC2)cc1 [Compound 7, 2-Chloro-4-(4,4-dimethyl-5-oxo-3-(4-(piperidin-4-yloxy)phenyl)-2-thioxoimidazolidin-1-yl)benzonitrile hydrochloride]",> 15.1,0,10,
"CN1CCC(Oc2ccc(N3C(=S)N(c4ccc(C#N)c(Cl)c4)C(=O)C3(C)C)cc2)CC1 [Compound 8, 2-Chloro-4-(4,4-dimethyl-3-(4-((1-methylpiperidin-4-yl)oxy)phenyl)-5-oxo-2-thioxoimidazolidin-1-yl)benzonitrile hydrochloride]",> 15.1,0.1,,
"CC1(C)C(=O)N(c2ccc(C#N)c(Cl)c2)C(=S)N1c1ccc(OC2CCNCC2)nc1 [Compound 9, 2-Chloro-4-(4,4-dimethyl-5-oxo-3-(6-(piperidin-4-yloxy)pyridin-3-yl)-2-thioxoimidazolidin-1-yl)benzonitrile hydrochloride]",> 15.1,-0.2,,
"CN1CCC(Oc2ccc(N3C(=S)N(c4ccc(C#N)c(Cl)c4)C(=O)C3(C)C)cn2)CC1 [Compound 10, 2-Chloro-4-(4,4-dimethyl-3-(6-((1-methylpiperidin-4-yl)oxy)pyridin-3-yl)-5-oxo-2-thioxoimidazolidin-1-yl)benzonitrile hydrochloride]",> 15.1,0.1,0.46,
"N#Cc1ccc(N2C(=O)C3(CCC3)N(c3ccc(OC4CCNCC4)cc3)C2=S)cc1C(F)(F)F [Compound 11, 4-(8-Oxo-5-(4-(piperidin-4-yloxy)phenyl)-6-thioxo-5,7-diazaspiro[3.4]octan-7-yl)-2-(trifluoromethyl)benzonitrile]",> 15.1,0.1,,
"CN1CCC(Oc2ccc(N3C(=S)N(c4ccc(C#N)c(C(F)(F)F)c4)C(=O)C34CCC4)cc2)CC1 [Compound 12, 4-(5-(4-((1-Methylpiperidin-4-yl)oxy)phenyl)-8-oxo-6-thioxo-5,7-diazaspiro[3.4]octan-7-yl)-2-(trifluoromethyl)benzonitrile]",> 15.1,0.4,,
"CN1CCC(Oc2ncc(N3C(=S)N(c4ccc(C#N)c(C(F)(F)F)c4)C(=O)C34CCC4)cn2)CC1 [Compound 16, 4-(5-(2-((1-Methylpiperidin-4-yl)oxy)pyrimidin-5-yl)-8-oxo-6-thioxo-5,7-diazaspiro[3.4]octan-7-yl)-2-(trifluoromethyl)benzonitrile]",> 15.1,-0.1,,
"Cc1cc(N2C(=O)C3(CCC3)N(c3ccc(OC4CCN(C)CC4)cc3)C2=S)ccc1C#N [Compound 17, 2-Methyl-4-(5-(4-((1-methylpiperidin-4-yl)oxy)phenyl)-8-oxo-6-thioxo-5,7-diazaspiro[3.4]octan-7-yl)benzonitrile]",,-0.1,,> 15.1
"CN1CCC(Oc2ccc(N3C(=S)N(c4ccc(C#N)c(Cl)c4)C(=O)C34CCC4)cn2)CC1 [Compound 24, 2-Chloro-4-(5-(6-((1-methylpiperidin-4-yl)oxy)pyridin-3-yl)-8-oxo-6-thioxo-5,7-diazaspiro[3.4]octan-7-yl)benzonitrile hydrochloride]",> 15.1,0.3,,
